Reference: PMC8546149, “Antibiotic-chemoattractants enhance neutrophil clearance of Staphylococcus aureus” (Nature Communications, 2021)
Converted amounts (≈) assume the structure as drawn. “And” between values parts separate entries of the source, which are not always exact repeats. Identical values can stand only once. Non-standard residues stand in square brackets, D forms with d. No end group written: not given here. *: point of attachment. Pra = C#CC[C@H](N)C(=O)O; For = O=C*

T1: formyl peptide receptor 1 (FPR1) (human, UniProt P21462 1-350)
T1 sequence (looked up): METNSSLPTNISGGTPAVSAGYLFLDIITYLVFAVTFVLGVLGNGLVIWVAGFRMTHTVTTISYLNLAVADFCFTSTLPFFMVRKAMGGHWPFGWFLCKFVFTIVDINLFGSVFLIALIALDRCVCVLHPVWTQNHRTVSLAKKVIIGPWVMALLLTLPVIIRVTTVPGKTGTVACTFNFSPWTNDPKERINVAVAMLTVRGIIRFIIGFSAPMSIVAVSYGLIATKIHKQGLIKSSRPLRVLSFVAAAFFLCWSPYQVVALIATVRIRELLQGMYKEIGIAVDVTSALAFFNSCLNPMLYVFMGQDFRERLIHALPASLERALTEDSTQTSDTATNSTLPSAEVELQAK

B1: fMLFG = van (fMLFG conjugated to the C-terminus of vancomycin, no PEG linker) (peptide)
peptide: For-MLFG[Pra]
modifications: also: C-terminal propargylglycine linked by click (triazole) to azide-modified vancomycin carboxyl group

Legend:
S. aureus = test: Antimicrobial microbroth dilution assay (growth, MIC); type: cell-based; conditions: Staphylococcus aureus, 20 h, 90% growth inhibition at 20 h, ±SD, n=4
Experimental: All bacterial isolates used in this study are listed in Supplementary Table 1. The American Type Culture Collection strain (ATCC 29213) and S. aureus strains were cultured onto brain heart infusion (BHI) agar (BD) or into broth (BD) and grown at 37 °C with shaking. S. aureus was grown in cation adjusted Muller Hinton Broth II (CAMHB, Becton Dickson) for testing. All bacterial strains were stored in glycerol broth at −80 °C.
Antimicrobial activity of the antibiotic-chemoattractants was determined as per the Clinical and Laboratory Standards Institute guidelines for microbroth dilution assays. Compounds stocks were prepared as two-fold serial dilution at 10x stock concentration required (final concentration of DMSO 0.5%). Growth of the S. aureus (5 × 10^5 CFU/mL in CAMHB) was monitored in 96-well flat bottom polypropylene microtiter plates (Greiner) covered with BreatheEasy membranes (Diversified Biotech) and absorbance of each well was measured at 595 nm every 4 h for 24 h (Clariostar plate reader, software v5.20R5, BMG). The percentage growth was calculated relative to the no compound control and the average of three biological replicates plotted using GraphPad Prism 9 software. The minimum inhibitory concentration was determined by the lowest drug concentration that inhibited bacterial growth to 90% compared to the 0 μM control.

[1] = Mouse pneumonia model, lung histology (alveoli space, nuclei); type: in vivo; design: Area of lung: unit not given here; conditions: each line is an individual value, listed as Van
Experimental: For pathology assessment, excised lungs from one mouse for each of the treatment group was fixed in 10% buffered formalin before undergoing routine histological processing (Monash University Histology Platform). Lungs were embedded in paraffin, cut into 5 µm thick sections and stained with hematoxylin and eosin. Tissue pathology was assessed by a veterinary pathologist (Dr Mark Williamson, Gribbles Veterinary Pathology, Clayton, Australia).
The loss of alveoli structure was quantified in the H&E sections by determining the area of white space in six FOV (1.8 × 1.2 mm) in the outer lobes of the lung (threshold of 0–240). In addition, the number of nuclei in these FOV were also determined. This was performed by isolating nuclei in the image (threshold of 0–130) and then using the analyze particle function (particles 80–4000, circularity 0.05–1) in FIJI[36] to count the number of nuclei detected. Data were plotted using GraphPad Prism 8 software.

human neutrophils = test: Transwell chemotaxis assay; type: cell-based; conditions: any of the concentrations tested (1-1000 nM)
Experimental: For neutrophils used in transwell assays whole blood was collected in the presence of EDTA, under approval from Monash University Human Research Ethics Committee (project #9572) with written informed consent from healthy human donors; donors were de-identified.
The chemotaxis assay was performed in a 96-transwell plate with 3 µm pores (Corning). The plate was prepared by adding 200 μL of peptide in chemotaxis buffer (4 mM L-glutamine, 0.5% Human Serum Albumin, Sigma, 49% Roswell Park Memorial Institute (RPMI) 1640, 49% Hank’s buffered salt solution, ThermoFisher) into the bottom receiving wells at a final peptide concentration of 1, 10, 100, and 1000 nM (0.02% DMSO). The negative control of 0.02% DMSO was used. The top of the transwell plate was loaded with 200,000 neutrophils in 75 μL chemotaxis buffer. The plate was incubated in the dark at 37 °C with 5% CO2 for 1.5 h. […] Elastase activity was used as an indicator of neutrophil numbers and was measured by adding the chromogenic elastase substrate N-methoxysuccinyl-Ala-Ala-Pro-Val-p-nitroanilide (Sigma) at a final concentration of 1 mM[35]. After 30 min at room temperature, the absorbance at 405 nm was determined using a microplate reader (Clariostar plate reader, BMG). […]

S. aureus (SH1000-GFP) = test: Infection-on-a-chip S. aureus growth (GFP area) with neutrophils; type: cell-based, Staphylococcus aureus
Experimental: Use of this microfluidic device for monitoring migration of neutrophils and control of the S. aureus growth in cell culture medium has been outlined in detail previously. Briefly, microfluidic devices were primed with S. aureus (SH1000-GFP, 1 × 10^6/mL) in culture media (Iscove’s Modified Dulbecco’s Medium + 10% Fetal Bovine Serum) by loading the outer chamber and applying vacuum to draw bacteria into the inner chambers. The outer chamber was then washed by pushing 200 µL of media through the device using a pipette, and loaded with neutrophils (5.5 × 10^6/mL, stained with Hoechst 33342 dye, 10 min at 32 μM). Additionally, neutrophil phagocytosis was monitored by using pHrodo Red S. aureus BioParticles® (Life Technologies) in replace of live S. aureus cells. […] The concentration of cells were determined by hemocytometer.
Kinetics of neutrophil migration, S. aureus growth and phagocytosis was determined using imaging with an automated Nikon Eclipse TiE inverted wide-field microscope with stage control and perfect focus system run through the Nikon NIS element v4. […] The percentage of neutrophils recruited into the chamber was determined relative to the total number of neutrophils in each FOV divided by the number of chambers visible. […] The pHrodo or S. aureus GFP fluorescence within the microchamber was calculated by thresholding the image and measuring the area in FIJI[36]. […]

[2] = target: T1, formyl peptide receptor 1 (FPR1); test: cell-based or functional assay

Molecule | MIC (S. aureus; A8819 (daptomycin susceptible, ST105)) [µM] | MIC (S. aureus; ATCC 29213 / MSSA, ATCC 29213 (MSSA)) [µM] | MIC (S. aureus; MRSA, A5937 (MRSA, ST5)) [µM] | MIC (S. aureus; MRSA, A5948 (MRSA, ST8)) [µM] | MIC (S. aureus; MRSA, A6300 (MRSA, ST5)) [µM] | MIC (S. aureus; MRSA, A8090 (MRSA, ST5)) [µM] | MIC (S. aureus; MRSA, A9719 (MRSA, ST5)) [µM] | MIC (S. aureus; MRSA, A9754 (MRSA, ST8)) [µM] | MIC (S. aureus; MSSA, A9635 (MSSA, ST1892)) [µM] | Area of lung [1] | Nuclei [1] | neutrophil recruitment (in words) (human neutrophils) | growth inhibition of S. aureus by neutrophils in the microfluidic assay (S. aureus (SH1000-GFP)) | ERK1/2 phosphorylation at 5 min in CHO cells overexpressing human FPR1, potency of the conjugate against the free peptide (lower potency) [2] [fold] | calcium mobilization in CHO cells overexpressing human FPR1, potency of the conjugate against the free peptide (lower potency) [2] [fold]
CN[C@H](CC(C)C)C(=O)N[C@H]1C(=O)N[C@@H](CC(N)=O)C(=O)N[C@H]2C(=O)N[C@H]3C(=O)N[C@H](C(=O)N[C@H](C(=O)O)c4cc(O)cc(O)c4-c4cc3ccc4O)[C@H](O)c3ccc(c(Cl)c3)Oc3cc2cc(c3O[C@@H]2O[C@H](CO)[C@@H](O)[C@H](O)[C@H]2O[C@H]2C[C@](C)(N)[C@H](O)[C@H](C)O2)Oc2ccc(cc2Cl)[C@H]1O [Vancomycin, vancomycin] | 0.8 ± 0.1 (≈ 1.16 µg/mL) | 1 ± 0.25 (≈ 1.45 µg/mL) | 0.6 ± 0.01 (≈ 0.87 µg/mL) | 0.3 ± 0.03 (≈ 0.435 µg/mL) | 1 ± 0.2 (≈ 1.45 µg/mL) | 0.6 ± 0.01 (≈ 0.87 µg/mL) | 1 ± 0.3 (≈ 1.45 µg/mL) | 1.1 ± 0.06 (≈ 1.59 µg/mL) | 0.6 ± 0.01 (≈ 0.87 µg/mL) | 61.3 and 69.7 and 55.1 and 61.6 and 71.0 and 68.4 and 57.8 | 6013 and 1856 and 2087 and 3027 and 4794 and 2455 | no neutrophil recruitment |  |  | 
Van-C(H-MLFG-Tz) [C12] |  |  |  |  |  |  |  |  |  |  |  | no neutrophil recruitment | no observable growth inhibition |  | 
B1 |  |  |  |  |  |  |  |  |  |  |  |  |  | 10 | > 90
